This note sets out measurements from patent US9730940B2, “Purine inhibitors of human phosphatidylinositol 3-kinase delta” (priority 2012, dated 2017).

SMILES strings stand for the structures.

The experiment addresses PI3K-alpha (Homo sapiens (Human), UniProt P42336). Nature of the experiment: HTRF PI3K biochemical assay, alpha isoform. Conditions: ratio PI3K-alpha IC50 value/PI3K-delta IC50 value. Background: TR-FRET usually uses a lanthanide donor and a delayed reading to cut background.

Sequence of PI3K-alpha (P42336 whole entry, looked up, canonical isoform): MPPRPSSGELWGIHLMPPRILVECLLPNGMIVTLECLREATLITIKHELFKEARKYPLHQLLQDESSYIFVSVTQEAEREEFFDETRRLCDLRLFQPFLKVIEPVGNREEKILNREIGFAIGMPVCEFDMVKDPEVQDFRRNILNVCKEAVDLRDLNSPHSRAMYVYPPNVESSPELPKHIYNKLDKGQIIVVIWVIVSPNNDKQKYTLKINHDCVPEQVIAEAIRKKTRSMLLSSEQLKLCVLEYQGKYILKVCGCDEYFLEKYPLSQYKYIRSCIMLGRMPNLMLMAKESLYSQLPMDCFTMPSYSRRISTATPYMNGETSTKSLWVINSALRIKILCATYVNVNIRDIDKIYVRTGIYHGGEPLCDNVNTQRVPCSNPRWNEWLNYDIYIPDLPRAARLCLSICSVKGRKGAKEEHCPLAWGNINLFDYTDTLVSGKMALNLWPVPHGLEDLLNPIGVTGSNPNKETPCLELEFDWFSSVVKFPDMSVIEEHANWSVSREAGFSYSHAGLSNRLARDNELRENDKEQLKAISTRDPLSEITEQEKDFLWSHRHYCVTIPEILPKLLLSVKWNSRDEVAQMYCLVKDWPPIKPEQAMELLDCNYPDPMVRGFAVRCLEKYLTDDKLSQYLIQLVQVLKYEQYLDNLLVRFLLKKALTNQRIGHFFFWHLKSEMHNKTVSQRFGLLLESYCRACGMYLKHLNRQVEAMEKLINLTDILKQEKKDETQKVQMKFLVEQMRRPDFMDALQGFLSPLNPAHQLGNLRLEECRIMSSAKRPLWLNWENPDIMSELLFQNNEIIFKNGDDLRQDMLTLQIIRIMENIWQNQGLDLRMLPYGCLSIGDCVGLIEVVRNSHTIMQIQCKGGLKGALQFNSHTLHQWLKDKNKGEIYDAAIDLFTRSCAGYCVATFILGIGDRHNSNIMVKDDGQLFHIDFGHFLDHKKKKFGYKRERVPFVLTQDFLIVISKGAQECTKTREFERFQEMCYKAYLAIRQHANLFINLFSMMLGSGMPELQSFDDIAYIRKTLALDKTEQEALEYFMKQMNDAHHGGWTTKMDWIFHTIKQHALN
Sequence of PI3K-alpha (P27986 whole entry partner, looked up, canonical isoform): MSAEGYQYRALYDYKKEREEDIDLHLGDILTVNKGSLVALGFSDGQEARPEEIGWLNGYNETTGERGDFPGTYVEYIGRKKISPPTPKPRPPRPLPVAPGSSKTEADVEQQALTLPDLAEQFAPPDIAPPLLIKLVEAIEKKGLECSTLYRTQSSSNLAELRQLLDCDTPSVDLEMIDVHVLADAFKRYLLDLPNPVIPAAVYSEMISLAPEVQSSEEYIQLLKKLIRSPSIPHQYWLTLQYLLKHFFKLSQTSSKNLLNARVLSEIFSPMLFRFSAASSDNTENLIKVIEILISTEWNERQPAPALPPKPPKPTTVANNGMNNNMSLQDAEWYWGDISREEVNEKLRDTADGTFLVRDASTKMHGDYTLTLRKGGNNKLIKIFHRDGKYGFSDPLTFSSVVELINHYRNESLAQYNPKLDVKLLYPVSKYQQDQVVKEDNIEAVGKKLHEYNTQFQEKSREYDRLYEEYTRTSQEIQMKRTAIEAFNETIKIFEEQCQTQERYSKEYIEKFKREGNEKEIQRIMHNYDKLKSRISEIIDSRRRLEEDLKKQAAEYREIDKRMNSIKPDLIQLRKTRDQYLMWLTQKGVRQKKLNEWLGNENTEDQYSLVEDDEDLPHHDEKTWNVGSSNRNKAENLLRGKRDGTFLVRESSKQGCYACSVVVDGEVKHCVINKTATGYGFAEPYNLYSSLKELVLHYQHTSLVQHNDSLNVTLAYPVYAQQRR

Consider `CCn1ncc(-c2nc3c(O[C@H]4CCN(c5ccccn5)C4)ncnc3n2C)c1C` [Compound 7-7, 8-(1-ethyl-5-methyl-1H-pyrazol-4-yl)-9-methyl-6-{[(3S)-1-pyridin-2-ylpyrrolidin-3-yl]oxy}-9H-purine], for which the “Relative Selectivity versus PI3Kalpha” value is more than 10.
In the case of `CCn1c(-c2cnc(C)nc2)nc2c(O[C@H]3CCN(c4ccc(F)cc4)C3)ncnc21` [Compound 7-20, 9-ethyl-6-{[(3S)-1-(4-fluorophenyl)pyrrolidin-3-yl]oxy}-8-(2-methylpyrimidin-5-yl)-9H-purine], the “Relative Selectivity versus PI3Kalpha” value is reported as more than 10.
Take `CCn1c(-c2cnc(C)nc2)nc2c(O[C@H]3CCN(c4cccc(F)c4)C3)ncnc21` [Compound 7-21, 9-ethyl-6-{[(3S)-1-(3-fluorophenyl)pyrrolidin-3-yl]oxy}-8-(2-methylpyrimidin-5-yl)-9H-purine]: the “Relative Selectivity versus PI3Kalpha” value is listed as more than 10.
Turning to `CCn1ncc(-c2nc3c(O[C@H]4CCN(C(=O)c5cn[nH]c5)C4)ncnc3n2C)c1C` [Compound 2-72, 8-(1-ethyl-5-methyl-1H-pyrazol-4-yl)-9-methyl-6-{[(3S)-1-(1H-pyrazol-4-ylcarbonyl)pyrrolidin-3-yl]oxy}-9H-purine], the “Relative Selectivity versus PI3Kalpha” value is given as 9.
As for `CCn1c(-c2cnc(C)nc2)nc2c(O[C@H]3CCN(C(=O)c4cocn4)C3)ncnc21` [Compound 2-136, 9-ethyl-8-(2-methylpyrimidin-5-yl)-6-{[(3S)-1-(1,3-oxazol-4-ylcarbonyl)pyrrolidin-3-yl]oxy}-9H-purine], the “Relative Selectivity versus PI3Kalpha” value is on record as more than 10.
For the compound `CCn1c(-c2cnc(C(F)(F)F)nc2)nc2c(O[C@H]3CCN(C(=O)C4CC4)C3)ncnc21` [Compound 3-43, 6-{[(3S)-1-(cyclopropylcarbonyl)pyrrolidin-3-yl]oxy}-9-ethyl-8-[2-(trifluoromethyl)pyrimidin-5-yl]-9H-purine], the “Relative Selectivity versus PI3Kalpha” value was more than 10.
With `CCn1ncc(-c2nc3c(OC4CCN(C(=O)c5cnco5)C4)ncnc3n2C)c1C` (centres unmarked) [Compound 2-7, 8-(1-ethyl-5-methyl-1H-pyrazol-4-yl)-9-methyl-6-{[1-(1,3-oxazol-5-ylcarbonyl)pyrrolidin-3-yl]oxy}-9H-purine], the “Relative Selectivity versus PI3Kalpha” value is on record as more than 10.
For `CCn1ncc(-c2nc3c(O[C@H]4CCN(c5ncccn5)C4)ncnc3n2C)c1C` [Compound 7-1, 8-(1-ethyl-5-methyl-1H-pyrazol-4-yl)-9-methyl-6-{[(3S)-1-pyrimidin-2-ylpyrrolidin-3-yl]oxy}-9H-purine], the “Relative Selectivity versus PI3Kalpha” value is more than 10.
For `CCn1ncc(-c2nc3c(O[C@H]4CCN(C(=O)OC(C)(C)C)C4)ncnc3n2C)c1C` [Compound 1-1, tert-butyl (3S)-3-{[8-(1-ethyl-5-methyl-1H-pyrazol-4-yl)-9-methyl-9H-purin-6-yl]oxy}pyrrolidine-1-carboxylate] the value was more than 10; for `CCC(=O)N1CC[C@H](Oc2ncnc3c2nc(-c2cc(F)cc(NS(C)(=O)=O)c2)n3C)C1` [Compound 3-14, N-[3-fluoro-5-(9-methyl-6-{[(3S)-1-propanoylpyrrolidin-3-yl]oxy}-9H-purin-8-yl)phenyl]methanesulfonamide], more than 10; for `CCn1c(N2CCC(c3ccccc3)CC2)nc2c(O[C@H]3CCN(C(=O)OC(C)(C)C)C3)ncnc21` [Compound 13-5, tert-butyl (3S)-3-{[9-ethyl-8-(4-phenylpiperidin-1-yl)-9H-purin-6-yl]oxy}pyrrolidine-1-carboxylate], more than 10.
Turning to `CCC(=O)N1CC[C@H](Oc2ncnc3c2nc(-c2ccc(S(C)(=O)=O)cc2)n3C)C1` [Compound 3-39, 9-methyl-8-[4-(methyslulfonyl)phenyl]-6-{[(3S)-1-propanoylpyrrolidin-3-yl]oxy}-9H-purine], the “Relative Selectivity versus PI3Kalpha” value is recorded as more than 10.
Consider `CCc1nc(C)c(C(=O)N2CC[C@H](Oc3ncnc4c3nc(-c3cnn(CC)c3C)n4C)C2)o1` [Compound 2-86, 6-({(3S)-1-[(2-ethyl-4-methyl-1,3-oxazol-5-yl)carbonyl]pyrrolidin-3-yl}oxy)-8-(1-ethyl-5-methyl-1H-pyrazol-4-yl)-9-methyl-9H-purine], for which the “Relative Selectivity versus PI3Kalpha” value is listed as more than 10.
Regarding `CCC(=O)N1CCC(Oc2ncnc3c2nc(-c2cnn(CC)c2C)n3C)CC1` [Compound 2-14, 1-(4-((8-(1-ethyl-5-methyl-1H-pyrazol-4-yl)-9-methyl-9H-purin-6-yl)oxy)piperidin-1-yl)propan-1-one], the “Relative Selectivity versus PI3Kalpha” value turned out to be 1.
For the compound `CCn1c(-c2cnc(C)nc2)nc2c(O[C@H]3CCN(C(=O)N4CC(C)(OC)C4)C3)ncnc21` [Compound 5-21, 9-ethyl-6-({(3S)-1-[(3-methoxy-3-methylazetidin-1-yl)carbonyl]pyrrolidin-3-yl}oxy)-8-(2-methylpyrimidin-5-yl)-9H-purine], the “Relative Selectivity versus PI3Kalpha” value was more than 10.
With `CCOC(=O)[C@H](C)NC(=O)N1CC[C@H](Oc2ncnc3c2nc(-c2cnn(CC)c2C)n3C)C1` [Compound 5-6, ethyl N-{[(3S)-3-{[8-(1-ethyl-5-methyl-1H-pyrazol-4-yl)-9-methyl-9H-purin-6-yl]oxy}pyrrolidin-1-yl]carbonyl}alaninate] the figure was 5; with `CCn1c(-c2cnc(OC)c(NS(C)(=O)=O)c2)nc2c(O[C@H]3CCN(C(=O)C4CC4)C3)ncnc21` [Compound 3-41, N-[5-(6-{[(3S)-1-(cyclopropylcarbonyl)pyrrolidin-3-yl]oxy}-9-ethyl-9H-purin-8-yl)-2-methoxypyridin-3-yl]methanesulfonamide], more than 10.
For the compound `CCn1ncc(-c2nc3c(O[C@H]4CCN(C(=O)c5nnsc5C)C4)ncnc3n2C)c1C` [Compound 2-46, 8-(1-ethyl-5-methyl-1H-pyrazol-4-yl)-9-methyl-6-({(3S)-1-[(5-methyl-1,2,3-thiadiazol-4-yl)carbonyl]pyrrolidin-3-yl}oxy)-9H-purine], the “Relative Selectivity versus PI3Kalpha” value was more than 10.
For the compound `CCn1c(-c2cnc(C)nc2)nc2c(OC3CN(C(=O)C4CC4)CC3OC)ncnc21` (single isomer, unassigned) [Compound 2-115], the “Relative Selectivity versus PI3Kalpha” value was more than 10.
Regarding `CCn1c(-c2cnc(C)nc2)nc2c(O[C@H]3CCN(C(=O)N4CC5CC5C4)C3)ncnc21` (stereo partly drawn) [Compound 5-22, 6-{[(3S)-1-(3-azabicyclo[3.1.0]hex-3-ylcarbonyl)pyrrolidin-3-yl]oxy}-9-ethyl-8-(2-methylpyrimidin-5-yl)-9H-purine], the “Relative Selectivity versus PI3Kalpha” value is on record as more than 10.
With `CCn1ncc(-c2nc3c(O[C@H]4CCN(C(=O)c5cnon5)C4)ncnc3n2C)c1C` [Compound 2-29, 8-(1-ethyl-5-methyl-1H-pyrazol-4-yl)-9-methyl-6-{[(3S)-1-(1,2,5-oxadiazol-3-ylcarbonyl)pyrrolidin-3-yl]oxy}-9H-purine], the “Relative Selectivity versus PI3Kalpha” value is listed as 1.
With `CCC(=O)N1CC[C@H](Oc2ncnc3c2nc(-c2cnc(C(C)(C)C)s2)n3C)C1` [Compound 2-96, (S)-1-(3-((8-(2-(tert-butyl)thiazol-5-yl)-9-methyl-9H-purin-6-yl)oxy)pyrrolidin-1-yl)propan-1-one] the figure was more than 10.
For the compound `CCn1c(-c2ccc(OC)nc2)nc2c(O[C@H]3CCN(C(=O)C4CC(F)(F)C4)C3)ncnc21` [Compound 3-51, 6-({(3S)-1-[(3,3-difluorocyclobutyl)carbonyl]pyr-rolidin-3-yl}oxy)-9-ethyl-8-(6-methoxypyridin-3-yl)-9H-purine], the “Relative Selectivity versus PI3Kalpha” value is reported as more than 10.
Take `CCn1c(-c2cnc(C)nc2)nc2c(O[C@H]3CCN(c4cccnc4)C3)ncnc21` [Compound 7-24, 9-ethyl-8-(2-methylpyrimidin-5-yl)-6-{[(3S)-1-pyridin-3-ylprrolidin-3-yl]oxy}-9H-purine]: the “Relative Selectivity versus PI3Kalpha” value is more than 10.
As for `CCC(=O)N1CC[C@H](Oc2ncnc3c2nc(-c2cnn(-c4ccccc4)c2C)n3C)C1` [Compound 3-12, 9-methyl-8-(5-methyl-1-phenyl-1H-pyrazol-4-yl)-6-{[(3S)-1-propanoylpyrrolidin-3-yl]oxy}-9H-purine], the “Relative Selectivity versus PI3Kalpha” value is on record as more than 10.
Take `Cc1cc2cccc(-c3nc4c(O[C@H]5CCN(C(=O)OC(C)(C)C)C5)ncnc4n3C)c2[nH]1` [Compound 1-21, tert-butyl (3S)-3-{[9-methyl-8-(2-methyl-1H-indol-7-yl)-9H-purin-6-yl]oxy}pyrrolidine-1-carboxylate]: the “Relative Selectivity versus PI3Kalpha” value is on record as more than 10.
As to `CCn1c(-c2ccc(OC)nc2)nc2c(O[C@H]3CCN(C(=O)C(C)C)C3)ncnc21` [Compound 3-50, 9-ethyl-8-(6-methoxypyridin-3-yl)-6-{[(3S)-1-(2-methylpropanoyl)pyrrolidin-3-yl]oxy}-9H-purine], the “Relative Selectivity versus PI3Kalpha” value is reported as more than 10.
With `CCn1c(-c2cnc(C)nc2)nc2c(O[C@H]3CCN(C(=O)N4CC(O)C4)C3)ncnc21` [Compound 5-25, 1-{[(3S)-3-{[9-ethyl-8-(2-methylpyrimidin-5-yl)-9H-purin-6-yl]oxy}pyrrolidin-1-yl]carbonyl}azetidin-3-ol] the figure was more than 10.
As for `CCn1ncc(-c2nc3c(OC4CC(C)N(C(=O)OC(C)(C)C)C4)ncnc3n2C)c1C` (centres unmarked) [Compound 1-30, tert-butyl 4-((8-(1-ethyl-5-methyl-1H-pyrazol-4-yl)-9-methyl-9H-purin-6-yl)oxy)-2-methylpyrrolidine-1-carboxylate], the “Relative Selectivity versus PI3Kalpha” value is on record as 3.
Regarding `CCn1ncc(-c2nc3c(OC4CCN(C(=O)c5ccccc5)C4)ncnc3n2C)c1C` (centres unmarked) [Compound 2-1, 8-(1-ethyl-5-methyl-1H-pyrazol-4-yl)-9-methyl-6-{[1-(phenylcarbonyl)pyrrolidin-3-yl]oxy}-9H-purine], the “Relative Selectivity versus PI3Kalpha” value was more than 10.
With `CCC(=O)N1CC[C@H](Oc2ncnc3c2nc(Oc2cccc(C)c2C)n3C)C1` [Compound 12-1, 8-(2,3-dimethylphenoxy)-9-methyl-6-{[(3S)-1-propanoylpyrrolidin-3-yl]oxy}-9H-purine] the figure was 4; with `CCn1ncc(-c2nc3c(OC4CCN(C(=O)c5ccc6ccccc6c5)C4)ncnc3n2C)c1C` (centres unmarked) [Compound 2-3, 8-(1-ethyl-5-methyl-1H-pyrazol-4-yl)-9-methyl-6-{[1-(naphthalen-2-ylcarbonyl)pyrrolidin-3-yl]oxy}-9H-purine], more than 10.
